For 24 compounds, KL results are on record in ChEMBL document CHEMBL1125386, “Small atrial natriuretic peptide analogues: design, synthesis, and structural requirements for guanylate cyclase activation” (J Med Chem, 1992).

The test system of experiment [1] is Atrial natriuretic peptide receptor 1 (Oryctolagus cuniculus). Briefly: Binding affinity for low-affinity site Atrial natriuretic peptide receptor 1 of rabbit adrenal membrane. The settings on record: Adrenal gland.
Experiment [2] is described as follows: Binding affinity towards low-affinity site of Atrial natriuretic peptide receptor 1 of rabbit adrenal membrane. Format: tissue-based.

Regarding `CC[C@H](C)[C@@H]1NC(=O)[C@@H](CCCN=C(N)N)NC(=O)CNC(=O)CNC(=O)[C@@H](C2CCCCC2)NC(=O)[C@H](NC(=O)[C@H](N)CCCN=C(N)N)CSSC[C@H](C(N)=O)NC(=O)[C@@H](CCCN=C(N)N)NC(=O)[C@H]2Cc3ccccc3CN2C(=O)[C@@H]([C@@H](C)CC)NC(=O)[C@H](CCCN=C(N)N)NC(=O)[C@@H](CC(=O)O)NC1=O`, the KL in experiment [1] was determined as 96 nM. For the compound `CC[C@H](C)[C@@H]1NC(=O)[C@@H](CCCN=C(N)N)NC(=O)CNC(=O)CNC(=O)[C@@H](C2CCCCC2)NC(=O)[C@H](NC(=O)[C@H](N)CCCN=C(N)N)CSSC[C@H](C(N)=O)NC(=O)[C@@H](CCCN=C(N)N)NC(=O)[C@H](Cc2ccccc2)NC(=O)[C@@H]([C@@H](C)CC)NC(=O)[C@H](CCCN=C(N)N)NC(=O)CNC1=O`, the KL in experiment [1] was found to be 260 nM. In turn, `CC[C@H](C)[C@@H]1NC(=O)[C@@H](CCCN=C(N)N)NC(=O)CNC(=O)CNC(=O)[C@@H](C2CCCCC2)NC(=O)CCSSC[C@H](C(N)=O)NC(=O)[C@H](CCCN=C(N)N)NC(=O)[C@H](Cc2ccccc2)NC(=O)[C@@H]([C@@H](C)CC)NC(=O)[C@H](CCCN=C(N)N)NC(=O)[C@@H](CC(=O)O)NC1=O` came in with a KL in experiment [1] of 380 nM. `CC[C@H](C)[C@@H]1NC(=O)[C@@H](CCCN=C(N)N)NC(=O)CNC(=O)CNC(=O)[C@@H](Cc2ccccc2)NC(=O)[C@H](NC(=O)[C@H](N)CCCN=C(N)N)CSSC[C@H](C(=O)O)NC(=O)[C@@H](CCCN=C(N)N)NC(=O)[C@H](Cc2ccccc2)NC(=O)[C@@H]([C@@H](C)CC)NC(=O)[C@H](CCCN=C(N)N)NC(=O)[C@@H](CC(C)C)NC1=O` gave a KL in experiment [1] of 680 nM.

In experiment [1], `CC[C@H](C)[C@@H]1NC(=O)[C@@H](CCCN=C(N)N)NC(=O)CNC(=O)CNC(=O)[C@@H](C2CCCCC2)NC(=O)CCSSC[C@H](C(N)=O)NC(=O)[C@@H](CCCN=C(N)N)NC(=O)[C@@H](Cc2ccccc2)NC(=O)[C@@H]([C@@H](C)CC)NC(=O)[C@H](CCCN=C(N)N)NC(=O)[C@@H](CC(=O)O)NC1=O` showed a KL of 6500 nM. Same read-out and setting: as for `CC[C@H](C)[C@@H]1NC(=O)[C@H]2CCCCNC(=O)C[C@@H](NC1=O)C(=O)N[C@@H](CCCN=C(N)N)C(=O)N[C@H]([C@@H](C)CC)C(=O)N[C@@H](Cc1ccccc1)C(=O)N[C@H](CCCN=C(N)N)C(=O)N[C@@H](C(N)=O)CSSC[C@@H](NC(=O)[C@H](N)CCCN=C(N)N)C(=O)N[C@H](C1CCCCC1)C(=O)NCC(=O)NCC(=O)N2`, the figure is 58 nM; as for `CC[C@H](C)[C@@H]1NC(=O)[C@@H](CCCN=C(N)N)NC(=O)CNC(=O)CNC(=O)[C@@H](C2CCCCC2)NC(=O)[C@H](NC(=O)[C@H](N)CCCN=C(N)N)CSSC[C@H](C(N)=O)NC(=O)[C@@H](C)NC(=O)CNC(=O)[C@@H]([C@@H](C)CC)NC(=O)[C@H](CCCN=C(N)N)NC(=O)[C@@H](CC(=O)O)NC1=O`, 1200 nM.

Consider `CC[C@H](C)[C@@H]1NC(=O)[C@@H](CCCN=C(N)N)NC(=O)CNC(=O)CNC(=O)[C@@H](C2CCCCC2)NC(=O)[C@H](NC(=O)[C@@H](CO)NC(=O)[C@H](N)CO)CSSC[C@H](C(=O)O)NC(=O)[C@@H](CCCN=C(N)N)NC(=O)[C@H](Cc2ccccc2)NC(=O)[C@@H]([C@@H](C)CC)NC(=O)[C@H](CCCN=C(N)N)NC(=O)[C@@H](CC(=O)O)NC1=O`, for which the KL in experiment [1] is 160 nM. As to `CC[C@H](C)[C@@H]1NC(=O)[C@@H](CCCN=C(N)N)NC(=O)CNC(=O)CNC(=O)[C@@H](Cc2ccccc2)NC(=O)[C@@H](C)NC(=O)[C@H](NC(=O)[C@H](CO)NC(=O)[C@@H](N)CO)CSSC[C@H](C(=O)N[C@H](Cc2ccccc2)C(=O)N[C@H](CCCN=C(N)N)C(=O)O)NC(=O)[C@@H]([C@@H](C)CC)NC(=O)[C@H](CCCN=C(N)N)NC(=O)[C@@H](CO)NC1=O`, the KL in experiment [2] is 510 nM. The same measure, in the same setting: the result for `CC[C@H](C)[C@@H]1NC(=O)[C@@H](CCCN=C(N)N)NC(=O)CNC(=O)CNC(=O)[C@@H](Cc2ccccc2)NC(=O)[C@H](NC(=O)[C@H](N)CCCN=C(N)N)CSSC[C@H](C(=O)O)NC(=O)[C@@H](CCCN=C(N)N)NC(=O)[C@H](Cc2ccccc2)NC(=O)[C@@H]([C@@H](C)CC)NC(=O)[C@H](CCCN=C(N)N)NC(=O)[C@@H](CC(=O)O)NC1=O` reads 660 nM; that for `CC[C@H](C)[C@@H]1NC(=O)[C@H](CCCN=C(N)N)NC(=O)[C@@H](CC(=O)O)NC(=O)[C@H]([C@@H](C)CC)NC(=O)[C@@H](CCCN=C(N)N)NC(=O)CNC(=O)CNC(=O)[C@@H](Cc2ccccc2)NC(=O)CNC(=O)[C@@H](NC(=O)[C@H](CO)NC(=O)[C@@H](N)CO)CSSC[C@@H](C(=O)N[C@H](Cc2ccccc2)C(=O)N[C@@H](CCCCN=C(N)N)C(=O)O)NC1=O`, 320 nM.

In turn, `CC[C@H](C)[C@@H]1NC(=O)[C@@H](CCCN=C(N)N)NC(=O)CNC(=O)CNC(=O)[C@@H](C2CCCCC2)NC(=O)CCSSC[C@H](C(N)=O)NC(=O)[C@@H](CCCN=C(N)N)NC(=O)[C@H](Cc2ccccc2)NC(=O)[C@@H]([C@@H](C)CC)NC(=O)[C@H](CCCN=C(N)N)NC(=O)[C@@H](CC(=O)O)NC1=O` yielded a KL in experiment [2] of 300 nM. As to `CC[C@H](C)[C@@H]1NC(=O)[C@@H](CCCN=C(N)N)NC(=O)CNC(=O)CNC(=O)[C@@H](C2CCCCC2)NC(=O)CCSSC[C@@H](C(N)=O)NC(=O)[C@@H](CCCN=C(N)N)NC(=O)[C@H](Cc2ccccc2)NC(=O)[C@@H]([C@@H](C)CC)NC(=O)[C@H](CCCN=C(N)N)NC(=O)[C@@H](CC(=O)O)NC1=O`, the KL in experiment [1] was 1900 nM. For the compound `CC[C@H](C)[C@@H]1NC(=O)[C@@H](CCCN=C(N)N)NC(=O)CNC(=O)CNC(=O)[C@@H](Cc2ccccc2)NC(=O)[C@@H](C)NC(=O)[C@H](NC(=O)[C@H](CO)NC(=O)[C@@H](N)CO)CSSC[C@H](C(=O)N[C@H](Cc2ccccc2)C(=O)N[C@H](CCCN=C(N)N)C(=O)O)NC(=O)[C@@H]([C@@H](C)CC)NC(=O)[C@H](CCCN=C(N)N)NC(=O)CNC1=O`, the KL in experiment [2] was 740 nM.

In the case of `CC[C@H](C)[C@@H]1NC(=O)[C@@H](CCCN=C(N)N)NC(=O)CNC(=O)CNC(=O)[C@@H](C2CCCCC2)NC(=O)[C@H](N)CSSC[C@H](C(N)=O)NC(=O)[C@@H](CCCN=C(N)N)NC(=O)[C@H](Cc2ccccc2)NC(=O)[C@@H](C)NC(=O)[C@H](CCCN=C(N)N)NC(=O)[C@@H](CC(=O)O)NC1=O`, the KL in experiment [1] worked out at 800 nM. Same read-out and setting: as for `CC(C)C[C@@H]1NC(=O)[C@@H](CCCN=C(N)N)NC(=O)CNC(=O)CNC(=O)[C@@H](Cc2ccccc2)NC(=O)[C@@H](C)NC(=O)[C@H](NC(=O)[C@H](CO)NC(=O)[C@@H](N)CO)CSSC[C@H](C(=O)N[C@H](Cc2ccccc2)C(=O)N[C@H](CCCN=C(N)N)C(=O)O)NC(=O)[C@@H](CC(C)C)NC(=O)[C@H](CCCN=C(N)N)NC(=O)[C@@H](CC(=O)O)NC1=O`, the figure is 680 nM. In experiment [2], `CC[C@H](C)[C@@H]1NC(=O)[C@@H](CCCN=C(N)N)NC(=O)CNC(=O)CNC(=O)[C@@H](Cc2ccccc2)NC(=O)[C@@H](C)NC(=O)[C@H](NC(=O)[C@H](CO)NC(=O)[C@@H](N)CO)CSSC[C@H](C(=O)N[C@H](Cc2ccccc2)C(=O)N[C@H](CCCN=C(N)N)C(=O)O)NC(=O)[C@@H]([C@@H](C)CC)NC(=O)[C@H](CC(=O)O)NC(=O)[C@@H](CCCN=C(N)N)NC1=O` registered a KL of 7800 nM.

`CC[C@H](C)[C@@H]1NC(=O)[C@@H](CCCN=C(N)N)NC(=O)CNC(=O)CNC(=O)[C@@H](Cc2ccccc2)NC(=O)CNC(=O)[C@H](NC(=O)[C@H](CO)NC(=O)[C@@H](N)CO)CSSC[C@H](C(=O)N[C@H](Cc2ccccc2)C(=O)N[C@H](CCCN=C(N)N)C(=O)O)NC(=O)[C@@H]([C@@H](C)CC)NC(=O)[C@H](CCCN=C(N)N)NC(=O)[C@@H](CC(=O)OC)NC1=O` gave a KL in experiment [2] of 1400 nM. In experiment [2], `CC[C@H](C)[C@@H]1NC(=O)[C@@H](CCCN=C(N)N)NC(=O)CNC(=O)CNC(=O)[C@@H](Cc2ccc(OC)c(OC)c2)NC(=O)C(C)NC(=O)[C@H](NC(=O)[C@H](CO)NC(=O)[C@@H](N)CO)CSSC[C@H](C(=O)N[C@H](Cc2ccccc2)C(=O)N[C@H](CCCN=C(N)N)C(=O)O)NC(=O)[C@@H]([C@@H](C)CC)NC(=O)[C@H](CCCN=C(N)N)NC(=O)[C@@H](CC(=O)O)NC1=O` (stereo in doubt) came in with a KL of 13000 nM. Still for that read-out and setting: as for `CC[C@H](C)[C@@H]1NC(=O)[C@@H](CCCN=C(N)N)NC(=O)CNC(=O)CNC(=O)[C@@H](C2CCCCC2)NC(=O)[C@H](NC(=O)[C@H](N)CCCN=C(N)N)CSSC[C@H](C(N)=O)NC(=O)[C@@H](CCCN=C(N)N)NC(=O)[C@@H]2Cc3ccccc3CN2C(=O)[C@@H]([C@@H](C)CC)NC(=O)[C@H](CCCN=C(N)N)NC(=O)[C@@H](CC(=O)O)NC1=O`, the figure is 270 nM; as for `CC[C@H](C)[C@@H]1NC(=O)[C@@H](CCCN=C(N)N)NC(=O)Cc2cccc(c2)NC(=O)Cc2cccc(c2)NC(=O)[C@@H](Cc2ccccc2)NC(=O)C(C)NC(=O)[C@H](NC(=O)[C@H](CO)NC(=O)[C@@H](N)CO)CSSC[C@H](C(=O)N[C@H](Cc2ccccc2)C(=O)N[C@H](CCCN=C(N)N)C(=O)O)NC(=O)[C@@H]([C@@H](C)CC)NC(=O)[C@H](CCCN=C(N)N)NC(=O)[C@@H](CC(=O)O)NC1=O` (stereo in doubt), 810 nM; as for `CC[C@H](C)[C@@H]1NC(=O)[C@@H](CCCN=C(N)N)NC(=O)CNC(=O)CNC(=O)[C@@H](Cc2ccccc2)NC(=O)CNC(=O)[C@H](NC(=O)[C@H](CO)NC(=O)[C@@H](N)CO)CSSC[C@H](C(=O)N[C@H](Cc2ccccc2)C(=O)NCC(=O)O)NC(=O)[C@@H]([C@@H](C)CC)NC(=O)[C@H](CCCN=C(N)N)NC(=O)[C@@H](CC(=O)O)NC1=O`, 3100 nM. Turning to `CC[C@H](C)[C@@H]1NC(=O)[C@@H](CCCN=C(N)N)NC(=O)CNC(=O)CNC(=O)[C@@H](Cc2ccccc2)NC(=O)[C@@H](C)NC(=O)[C@H](NC(=O)[C@H](CO)NC(=O)[C@@H](N)CO)CSSC[C@H](C(=O)N[C@H](Cc2ccccc2)C(=O)N[C@H](CCCN=C(N)N)C(=O)O)NC(=O)[C@@H]([C@@H](C)CC)NC(=O)[C@H](CCCN=C(N)N)NC(=O)[C@@H](C)NC1=O`, in experiment [2], the KL was 1000 nM. On the same count and under the same terms, the result for `CC[C@H](C)[C@@H]1NC(=O)[C@@H](CCCN=C(N)N)NC(=O)CNC(=O)CNC(=O)[C@@H](Cc2ccccc2)N(C)C(=O)C(C)NC(=O)[C@H](NC(=O)[C@H](CO)NC(=O)[C@@H](N)CO)CSSC[C@H](C(=O)N[C@H](Cc2ccccc2)C(=O)N[C@H](CCCN=C(N)N)C(=O)O)NC(=O)[C@@H]([C@@H](C)CC)NC(=O)[C@H](CCCN=C(N)N)NC(=O)[C@@H](CC(=O)O)NC1=O` (stereo in doubt) reads 290 nM.
